Test results from patent US11697648B2, “Fused pyrimidine pyridinone compounds as JAK inhibitors” (THERAVANCE BIOPHARMA R&D IP, LLC, priority 2019, dated 2023).

Columns and labels:
JAK1 = JAK1 (Homo sapiens (Human), UniProt P23458); experiment: Biochemical JAK1 kinase assay (LanthaScreen)
Outline: (§1)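 GST-JAK + GFP-STAT1 peptide, HEPES pH 7.5/MgCl2/EGTA/Brij-35 buffer; cpd preincubation 1 h RT; ATP start, 1 h RT; stop with 10 mM EDTA + 2 nM Tb-anti-pSTAT1; TR-FRET 520/495. 4-parameter IC50 → pKi (Cheng-Prusoff).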

Tyk2 = Tyk2 (Homo sapiens (Human), UniProt P29597); experiment: Biochemical Tyk2 kinase assay (LanthaScreen)
Outline: as §1

[1] = system: IL-2 stimulated STAT5 phosphorylation in Tall-1 human T cell line (JAK3); experiment: Cellular JAK3 potency assay: inhibition of IL-2 stimulated pSTAT5 in Tall-1 T cells; format: cell-based; settings: IL-2 stimulated pSTAT5, Tall-1 T cells
Outline: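 Tall-1 cells, 45,000 per well, preincubated 1 hour with compound at 37 °C, then stimulated 30 minutes with IL-2 at 300 ng/ml final. pSTAT5 (Tyr694/699) in lysates quantified by AlphaLISA SureFire Ultra. pIC50 derived from inhibition curves, given as mean with SD.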

JAK2 = JAK2 (Homo sapiens (Human), UniProt O60674); experiment: Biochemical JAK2 kinase assay (LanthaScreen)
Outline: as §1

JAK3 = JAK3 (Homo sapiens (Human), UniProt P52333); experiment: Biochemical JAK3 kinase assay (LanthaScreen); settings: for JAK3 (pKi)-JAK1 (pKi): selectivity JAK3 over JAK1, difference of pKi
Outline: as §1

Tyk2, sequence (P29597 whole entry): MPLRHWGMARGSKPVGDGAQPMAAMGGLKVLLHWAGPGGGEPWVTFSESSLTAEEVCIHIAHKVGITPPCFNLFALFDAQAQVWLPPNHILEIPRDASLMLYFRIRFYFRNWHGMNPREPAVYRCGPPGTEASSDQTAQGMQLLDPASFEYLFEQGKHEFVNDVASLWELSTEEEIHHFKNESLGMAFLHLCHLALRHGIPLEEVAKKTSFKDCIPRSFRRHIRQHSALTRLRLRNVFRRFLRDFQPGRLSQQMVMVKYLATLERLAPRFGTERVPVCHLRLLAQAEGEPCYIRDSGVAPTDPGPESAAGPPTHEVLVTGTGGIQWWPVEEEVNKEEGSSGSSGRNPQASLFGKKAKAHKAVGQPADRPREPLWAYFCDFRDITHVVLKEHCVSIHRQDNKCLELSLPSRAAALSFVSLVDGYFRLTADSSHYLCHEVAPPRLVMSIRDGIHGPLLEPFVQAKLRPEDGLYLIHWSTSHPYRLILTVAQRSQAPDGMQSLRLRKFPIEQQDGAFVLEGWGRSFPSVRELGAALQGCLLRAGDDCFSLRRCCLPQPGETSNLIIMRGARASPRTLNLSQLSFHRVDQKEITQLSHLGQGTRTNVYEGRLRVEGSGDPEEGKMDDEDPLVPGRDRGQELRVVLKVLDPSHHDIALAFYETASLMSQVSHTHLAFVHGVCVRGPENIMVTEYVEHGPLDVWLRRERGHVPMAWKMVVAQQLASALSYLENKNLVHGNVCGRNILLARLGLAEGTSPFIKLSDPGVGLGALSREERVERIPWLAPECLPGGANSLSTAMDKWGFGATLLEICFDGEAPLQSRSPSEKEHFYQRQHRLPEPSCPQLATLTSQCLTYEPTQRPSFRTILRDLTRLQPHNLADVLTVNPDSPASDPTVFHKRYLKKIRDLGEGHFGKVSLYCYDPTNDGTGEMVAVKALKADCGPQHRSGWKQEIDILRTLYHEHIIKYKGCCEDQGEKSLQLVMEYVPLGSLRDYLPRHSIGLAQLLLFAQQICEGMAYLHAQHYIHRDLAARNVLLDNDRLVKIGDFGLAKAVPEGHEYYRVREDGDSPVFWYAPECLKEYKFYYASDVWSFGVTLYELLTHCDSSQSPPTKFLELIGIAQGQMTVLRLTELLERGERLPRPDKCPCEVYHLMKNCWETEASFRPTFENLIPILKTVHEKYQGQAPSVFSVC
JAK3, sequence (P52333 whole entry): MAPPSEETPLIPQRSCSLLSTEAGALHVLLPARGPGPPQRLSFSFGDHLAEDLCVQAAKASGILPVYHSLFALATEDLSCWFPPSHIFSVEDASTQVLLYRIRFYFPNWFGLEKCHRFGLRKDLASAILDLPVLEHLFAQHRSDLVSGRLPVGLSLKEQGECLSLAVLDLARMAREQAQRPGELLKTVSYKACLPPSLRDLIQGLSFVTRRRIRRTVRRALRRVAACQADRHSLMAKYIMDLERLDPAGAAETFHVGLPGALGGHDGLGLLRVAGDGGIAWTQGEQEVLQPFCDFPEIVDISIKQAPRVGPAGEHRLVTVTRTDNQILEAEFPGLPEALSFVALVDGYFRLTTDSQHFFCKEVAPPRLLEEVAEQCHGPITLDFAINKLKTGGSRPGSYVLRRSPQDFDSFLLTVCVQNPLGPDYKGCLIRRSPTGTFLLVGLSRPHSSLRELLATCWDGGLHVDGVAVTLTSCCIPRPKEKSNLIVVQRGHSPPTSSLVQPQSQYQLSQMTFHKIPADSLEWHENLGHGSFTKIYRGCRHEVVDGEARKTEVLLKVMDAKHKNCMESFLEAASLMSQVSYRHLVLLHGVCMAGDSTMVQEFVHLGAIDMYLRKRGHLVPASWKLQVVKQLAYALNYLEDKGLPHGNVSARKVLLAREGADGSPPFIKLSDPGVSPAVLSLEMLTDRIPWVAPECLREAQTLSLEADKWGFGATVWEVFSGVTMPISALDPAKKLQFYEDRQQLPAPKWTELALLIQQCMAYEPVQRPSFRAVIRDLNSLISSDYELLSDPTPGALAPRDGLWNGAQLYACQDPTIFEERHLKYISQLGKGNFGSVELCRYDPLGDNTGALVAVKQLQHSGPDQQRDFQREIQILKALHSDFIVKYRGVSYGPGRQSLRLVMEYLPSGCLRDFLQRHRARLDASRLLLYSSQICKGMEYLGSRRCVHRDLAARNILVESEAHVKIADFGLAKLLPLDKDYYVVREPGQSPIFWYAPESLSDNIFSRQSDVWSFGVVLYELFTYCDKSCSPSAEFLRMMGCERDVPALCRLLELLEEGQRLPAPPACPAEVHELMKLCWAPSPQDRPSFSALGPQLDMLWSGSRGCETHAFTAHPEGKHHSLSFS
JAK2, sequence (O60674 whole entry): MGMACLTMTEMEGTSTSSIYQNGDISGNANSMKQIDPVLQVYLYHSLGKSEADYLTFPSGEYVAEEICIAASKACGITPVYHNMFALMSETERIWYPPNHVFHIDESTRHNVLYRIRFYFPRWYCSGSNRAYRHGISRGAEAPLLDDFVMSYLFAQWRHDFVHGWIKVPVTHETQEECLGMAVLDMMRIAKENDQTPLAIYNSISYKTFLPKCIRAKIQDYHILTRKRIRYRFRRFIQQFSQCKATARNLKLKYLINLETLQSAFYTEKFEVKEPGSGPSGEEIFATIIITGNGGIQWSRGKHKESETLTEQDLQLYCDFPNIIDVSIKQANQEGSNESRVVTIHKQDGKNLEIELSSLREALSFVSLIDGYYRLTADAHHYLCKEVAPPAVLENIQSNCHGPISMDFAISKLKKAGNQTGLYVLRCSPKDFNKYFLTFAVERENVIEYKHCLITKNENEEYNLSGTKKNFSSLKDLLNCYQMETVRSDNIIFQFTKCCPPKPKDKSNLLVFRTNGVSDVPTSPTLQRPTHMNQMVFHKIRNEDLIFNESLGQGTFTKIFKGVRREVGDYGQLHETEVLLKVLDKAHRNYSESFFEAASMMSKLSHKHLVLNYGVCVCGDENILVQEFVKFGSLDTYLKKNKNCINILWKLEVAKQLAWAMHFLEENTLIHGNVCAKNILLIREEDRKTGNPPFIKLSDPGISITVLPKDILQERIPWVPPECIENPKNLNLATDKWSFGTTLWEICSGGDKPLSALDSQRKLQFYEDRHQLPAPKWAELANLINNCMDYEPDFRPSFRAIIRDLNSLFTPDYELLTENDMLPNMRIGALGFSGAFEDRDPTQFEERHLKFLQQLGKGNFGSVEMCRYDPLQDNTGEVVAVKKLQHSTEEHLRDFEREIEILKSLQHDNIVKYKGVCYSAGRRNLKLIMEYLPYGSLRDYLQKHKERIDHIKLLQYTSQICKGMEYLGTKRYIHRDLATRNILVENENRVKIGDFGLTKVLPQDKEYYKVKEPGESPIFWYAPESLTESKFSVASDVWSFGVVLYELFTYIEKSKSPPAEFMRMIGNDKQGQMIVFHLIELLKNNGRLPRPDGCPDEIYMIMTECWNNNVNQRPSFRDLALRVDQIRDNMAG
JAK1, sequence (P23458 whole entry): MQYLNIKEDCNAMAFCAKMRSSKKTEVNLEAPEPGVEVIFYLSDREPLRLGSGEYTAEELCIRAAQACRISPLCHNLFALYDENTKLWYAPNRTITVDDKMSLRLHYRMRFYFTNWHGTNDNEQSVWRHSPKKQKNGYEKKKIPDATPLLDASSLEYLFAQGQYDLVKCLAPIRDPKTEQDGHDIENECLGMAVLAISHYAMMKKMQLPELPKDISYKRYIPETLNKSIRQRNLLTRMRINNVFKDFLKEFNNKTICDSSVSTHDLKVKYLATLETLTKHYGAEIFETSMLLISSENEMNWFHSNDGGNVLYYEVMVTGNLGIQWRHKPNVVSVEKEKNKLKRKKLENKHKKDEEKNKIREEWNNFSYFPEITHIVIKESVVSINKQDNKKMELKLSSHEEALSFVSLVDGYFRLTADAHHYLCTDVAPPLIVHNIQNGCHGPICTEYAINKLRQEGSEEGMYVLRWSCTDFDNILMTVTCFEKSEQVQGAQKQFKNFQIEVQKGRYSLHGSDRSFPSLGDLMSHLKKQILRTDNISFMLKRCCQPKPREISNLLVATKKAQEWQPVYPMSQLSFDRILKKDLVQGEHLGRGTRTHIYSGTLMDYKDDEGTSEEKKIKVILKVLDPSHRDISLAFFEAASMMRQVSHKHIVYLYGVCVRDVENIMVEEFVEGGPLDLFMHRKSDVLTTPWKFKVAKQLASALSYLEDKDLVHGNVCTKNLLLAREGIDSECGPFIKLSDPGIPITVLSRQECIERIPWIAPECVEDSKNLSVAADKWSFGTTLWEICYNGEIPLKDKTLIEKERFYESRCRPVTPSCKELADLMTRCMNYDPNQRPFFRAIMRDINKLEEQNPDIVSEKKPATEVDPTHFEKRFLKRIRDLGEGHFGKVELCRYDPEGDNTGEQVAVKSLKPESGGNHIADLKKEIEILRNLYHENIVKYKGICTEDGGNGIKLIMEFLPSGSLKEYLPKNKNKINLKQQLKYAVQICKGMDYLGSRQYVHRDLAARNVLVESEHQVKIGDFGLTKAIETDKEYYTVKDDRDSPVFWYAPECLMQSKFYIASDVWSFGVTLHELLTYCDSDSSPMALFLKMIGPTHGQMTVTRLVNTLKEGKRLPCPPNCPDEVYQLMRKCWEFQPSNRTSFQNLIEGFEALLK

Row | SMILES | JAK 1 (pKi) (JAK1) | Tyk 2 (pKi) (Tyk2) | Tall-1 (pIC50) [1] | JAK 2 (pKi) (JAK2) | JAK 3 (pKi) (JAK3) | JAK3 (pKi)-JAK1 (pKi) (JAK3)
1 | C=CC(=O)N1CCN(CCn2c(=O)ccc3cnc(Nc4ccc(N5CCN(C(=S)N(C)C)CC5)cc4)nc32)CC1 [Example 214] | E (E represents a pKi value of 7 or below (Ki of 100 nM or above)) | E (E represents a pKi value of 7 or below (Ki of 100 nM or above)) | B (B represents a pC50 value between 6.7 (included) and 7.5 (IC50 between 200 nM and 32 nM)) | E (E represents a pKi value of 7 or below (Ki of 100 nM or above)) | B (B represents pKi value between 9 and 10 (Ki between 1 nM and 0.1 nM)) | A (A represents a value of 3 or above)
2 | C=CC(=O)N1CC(CCn2c(=O)ccc3cnc(Nc4cccc(C(C)N5CCN(C(=O)N(C)C)CC5)c4)nc32)C1 (stereo not drawn) [Example 215] | E (E represents a pKi value of 7 or below (Ki of 100 nM or above)) | E (E represents a pKi value of 7 or below (Ki of 100 nM or above)) | B (B represents a pC50 value between 6.7 (included) and 7.5 (IC50 between 200 nM and 32 nM)) | E (E represents a pKi value of 7 or below (Ki of 100 nM or above)) | B (B represents pKi value between 9 and 10 (Ki between 1 nM and 0.1 nM)) | A (A represents a value of 3 or above)
3 | C=CC(=O)N1CC(CCn2c(=O)ccc3cnc(Nc4cccc(C(C)N5CCN(C(C)=O)CC5)c4)nc32)C1 (stereo not drawn) [Example 216] | E (E represents a pKi value of 7 or below (Ki of 100 nM or above)) | E (E represents a pKi value of 7 or below (Ki of 100 nM or above)) | C (C represents a pIC50 value between 6 and 6.7 (IC50 between 1 μM and 200 nM)) | E (E represents a pKi value of 7 or below (Ki of 100 nM or above)) | B (B represents pKi value between 9 and 10 (Ki between 1 nM and 0.1 nM)) | A (A represents a value of 3 or above)
4 | C=CC(=O)N1CC(CC)(CCn2c(=O)ccc3cnc(Nc4ccc(N5CCN(C)CC5)cc4)nc32)C1 [Example 217] | E (E represents a pKi value of 7 or below (Ki of 100 nM or above)) | E (E represents a pKi value of 7 or below (Ki of 100 nM or above)) | A (A represents a pIC50 value≥7.5 (IC50≤32 nM)) | D (D represents a pKi value between 7 and 8 (Ki between 100 nM and 10 nM)) | B (B represents pKi value between 9 and 10 (Ki between 1 nM and 0.1 nM)) | A (A represents a value of 3 or above)
5 | C=CC(=O)N1CCN(CCn2c(=O)ccc3cnc(Nc4ccc(N5CCN(C(C)(C)C)CC5)cc4)nc32)CC1 [Example 219] | E (E represents a pKi value of 7 or below (Ki of 100 nM or above)) | E (E represents a pKi value of 7 or below (Ki of 100 nM or above)) | A (A represents a pIC50 value≥7.5 (IC50≤32 nM)) | E (E represents a pKi value of 7 or below (Ki of 100 nM or above)) | B (B represents pKi value between 9 and 10 (Ki between 1 nM and 0.1 nM)) | A (A represents a value of 3 or above)
6 | C=CC(=O)N1CCN(CCn2c(=O)ccc3cnc(Nc4cnn(CCOC(C)C)c4)nc32)[C@@H](CC)C1 [Example 220] | E (E represents a pKi value of 7 or below (Ki of 100 nM or above)) | E (E represents a pKi value of 7 or below (Ki of 100 nM or above)) | B (B represents a pC50 value between 6.7 (included) and 7.5 (IC50 between 200 nM and 32 nM)) | E (E represents a pKi value of 7 or below (Ki of 100 nM or above)) | B (B represents pKi value between 9 and 10 (Ki between 1 nM and 0.1 nM)) | A (A represents a value of 3 or above)
7 | C=CC(=O)N1CCN(CCn2c(=O)ccc3cnc(Nc4cnn(CCOCC)c4)nc32)[C@@H](CC)C1 [Example 221] | E (E represents a pKi value of 7 or below (Ki of 100 nM or above)) | E (E represents a pKi value of 7 or below (Ki of 100 nM or above)) | B (B represents a pC50 value between 6.7 (included) and 7.5 (IC50 between 200 nM and 32 nM)) | E (E represents a pKi value of 7 or below (Ki of 100 nM or above)) | B (B represents pKi value between 9 and 10 (Ki between 1 nM and 0.1 nM)) | A (A represents a value of 3 or above)
8 | C=CC(=O)N1CC(CCn2c(=O)ccc3cnc(Nc4ccc(OCCO)cc4)nc32)C1 [Example 223] | E (E represents a pKi value of 7 or below (Ki of 100 nM or above)) | E (E represents a pKi value of 7 or below (Ki of 100 nM or above)) | B (B represents a pC50 value between 6.7 (included) and 7.5 (IC50 between 200 nM and 32 nM)) | E (E represents a pKi value of 7 or below (Ki of 100 nM or above)) | A (A represents a pKi value≥10 (Ki≤0.1 nM)) | A (A represents a value of 3 or above)
9 | C=CC(=O)N1CC(CCn2c(=O)ccc3cnc(Nc4ccc(N(C)CCO)cc4)nc32)C1 [Example 224] | E (E represents a pKi value of 7 or below (Ki of 100 nM or above)) | E (E represents a pKi value of 7 or below (Ki of 100 nM or above)) | B (B represents a pC50 value between 6.7 (included) and 7.5 (IC50 between 200 nM and 32 nM)) | E (E represents a pKi value of 7 or below (Ki of 100 nM or above)) | B (B represents pKi value between 9 and 10 (Ki between 1 nM and 0.1 nM)) | A (A represents a value of 3 or above)
10 | C=CC(=O)N1CC(CCn2c(=O)ccc3cnc(Nc4ccc(N(C)Cc5ccccc5)cc4)nc32)C1 [Example 225] | E (E represents a pKi value of 7 or below (Ki of 100 nM or above)) | E (E represents a pKi value of 7 or below (Ki of 100 nM or above)) | C (C represents a pIC50 value between 6 and 6.7 (IC50 between 1 μM and 200 nM)) | E (E represents a pKi value of 7 or below (Ki of 100 nM or above)) | B (B represents pKi value between 9 and 10 (Ki between 1 nM and 0.1 nM)) | A (A represents a value of 3 or above)
11 | C=CC(=O)N1CC(CCn2c(=O)ccc3cnc(Nc4ccn(C)n4)nc32)C1 [Example 226] | E (E represents a pKi value of 7 or below (Ki of 100 nM or above)) | E (E represents a pKi value of 7 or below (Ki of 100 nM or above)) | C (C represents a pIC50 value between 6 and 6.7 (IC50 between 1 μM and 200 nM)) | E (E represents a pKi value of 7 or below (Ki of 100 nM or above)) | B (B represents pKi value between 9 and 10 (Ki between 1 nM and 0.1 nM)) | A (A represents a value of 3 or above)
12 | C[C@H]1CN(c2ccc(Nc3ncc4ccc(=O)n(CCC5CN(C(=O)/C=C/CN(C)C)C5)c4n3)cc2)CCN1C [Example 227] | E (E represents a pKi value of 7 or below (Ki of 100 nM or above)) | E (E represents a pKi value of 7 or below (Ki of 100 nM or above)) | C (C represents a pIC50 value between 6 and 6.7 (IC50 between 1 μM and 200 nM)) | E (E represents a pKi value of 7 or below (Ki of 100 nM or above)) | B (B represents pKi value between 9 and 10 (Ki between 1 nM and 0.1 nM)) | A (A represents a value of 3 or above)
13 | C[C@@H]1CN(c2ccc(Nc3ncc4ccc(=O)n(CCC5CN(C(=O)/C=C/CN(C)C)C5)c4n3)cc2)CCN1C [Example 228] | E (E represents a pKi value of 7 or below (Ki of 100 nM or above)) | E (E represents a pKi value of 7 or below (Ki of 100 nM or above)) | C (C represents a pIC50 value between 6 and 6.7 (IC50 between 1 μM and 200 nM)) | E (E represents a pKi value of 7 or below (Ki of 100 nM or above)) | B (B represents pKi value between 9 and 10 (Ki between 1 nM and 0.1 nM)) | A (A represents a value of 3 or above)
14 | C=CC(=O)N1CCN(CCn2c(=O)ccc3cnc(Nc4cnn(CCOCC)c4)nc32)[C@@H](C)C1 [Example 229] | E (E represents a pKi value of 7 or below (Ki of 100 nM or above)) | E (E represents a pKi value of 7 or below (Ki of 100 nM or above)) | B (B represents a pC50 value between 6.7 (included) and 7.5 (IC50 between 200 nM and 32 nM)) | E (E represents a pKi value of 7 or below (Ki of 100 nM or above)) | B (B represents pKi value between 9 and 10 (Ki between 1 nM and 0.1 nM)) | A (A represents a value of 3 or above)
15 | C=CC(=O)N1CCN(CCn2c(=O)ccc3cnc(Nc4cnn(CCOC(C)C)c4)nc32)[C@@H](C)C1 [Example 230] | E (E represents a pKi value of 7 or below (Ki of 100 nM or above)) | E (E represents a pKi value of 7 or below (Ki of 100 nM or above)) | B (B represents a pC50 value between 6.7 (included) and 7.5 (IC50 between 200 nM and 32 nM)) | E (E represents a pKi value of 7 or below (Ki of 100 nM or above)) | B (B represents pKi value between 9 and 10 (Ki between 1 nM and 0.1 nM)) | A (A represents a value of 3 or above)
